Measurements from US9028797B2, “Composite body for antigen or drug delivery” (priority 2010, dated 2015).

What was measured:
OVA = experiment: Antibody titer to OVA by ELISA in serum of immunized mice (Example 13); format: in vivo; settings: mouse serum 2 weeks after final immunization; every other week, 4 times
Description: OVA/BK/γ-PGA complex was constructed using ovalbumin (OVA), benzalkonium chloride (BK) and γ-PGA. OVA alone, benzalkonium chloride and γ-PGA (vector alone), and OVA/BK/γ-PGA complex were administered to mice every other week, 4 times in total for immunization. After 2 weeks from the final immunization, the serum was collected, and the antibody titer to OVA was measured by ELISA. For the measurement of the antibody titer, an HRP-labeled goat-derived anti-mouse IgG antibody was used as the secondary antibody.

[1] = test system: OVA-expressing cancer cell (EG7); experiment: Tumor growth of intradermally transplanted OVA-expressing cancer cell after immunization (Example 14); format: in vivo, mice; settings: EG7 intradermally transplanted 2 weeks after final immunization
Description: OVA/BK/γ-PGA complex was constructed using ovalbumin (OVA), benzalkonium chloride (BK) and γ-PGA. To the mice were administered OVA alone, benzalkonium chloride and γ-PGA (vector alone), and OVA/BK/γ-PGA complex every other week, 4 times in total. After 2 weeks from the final immunization, OVA-expressing cancer cell (EG7) was intradermally transplanted, and the tumor growth after transplantation was observed.

[2] = test system: dendritic cell line, DC2.4 cell; experiment: Cellular uptake of fluorescently labeled BSA, fluorescence microscopy (Example 3); format: cell-based; settings: incubated 2 hr, imaged 22 hr later
Description: As a model protein, bovine serum albumin (BSA) was fluorescently labeled with rhodamine B isothiocyanate and used. A BSA/BAC/γ-PGA complex prepared using benzalkonium chloride (BAC) and γ-PGA with BSA or BSA was added to a dendritic cell line, DC2.4 cell, and the mixture was incubated for 2 hr. The cells were washed and fluorescence images of the cell were measured by a fluorescence microscope 22 hr later.

| Substance | antibody titer to OVA (immunity induction effect) (OVA) | tumor growth suppressive effect [1] | cellular uptake by dendritic cell (fluorescence of BSA) [2] |
| --- | --- | --- | --- |
| ovalbumin [ovalbumin antigen alone] | did not show an immunity induction effect | did not show a tumor growth suppressive effect | – |
| bovine serum albumin [BSA] | – | – | not observed |
